Patent publication US10519111B2, “UV absorbing compounds, compositions comprising same and uses thereof” (CORAL SUNSCREEN PTY LTD, priority 2013, dated 2019)

Key:
Photostability = format: physicochemical; details: Table 13B
[1] = Critical wavelength (λcrit), approximate in-house measurement; format: physicochemical; details: for λcrit: Table 13B
Text: As the precise test for critical wavelength was unable to be replicated exactly by the inventors due to the need for specialist equipment and a specific calibration of the spectrophotometer, these values are only approximate to a degree. […] This represents a highly useful result and so, compounds based around this benzoyl substitution pattern shown, are especially preferred.

[2] = UV absorption properties (λmax, molar extinction coefficient ε, efficiency E 1%, 1 cm); format: physicochemical; details: for λmax / E (1%, 1 cm) / ε: Table 13B; for λmax: miscellaneous compounds; for E (1%, 1 cm) / ε / ε (molar extinction coefficient): values in order of the λmax values; for ε: in M-1 cm-1
[3] = literature value, standardised test; cited from earlier work

Row | SMILES | Photostability (%) (Photostability) | λcrit [1] [nm] | λmax [2] [nm] | E (1%, 1 cm) [2] | ε [2] | UV λmax [2] [nm] | ε (molar extinction coefficient) [2] [M⁻¹ cm⁻¹] | melting point | Photostability (%) + Octo (Photostability; with octocrylene (+ Octo)) [%] | shoulder in the λmax column ([2]; Tables 5, 10, 13B) [nm] | critical wavelength ([1]; values only approximate) [nm] | critical wavelength, reported [3] [nm]
1 | CCCCC(CC)CN(c1ccc(C(=O)C2=CN(C(C)(C)C)CCC2(C)C)cc1)c1ccc(C(=O)C2=CN(C(C)(C)C)CCC2(C)C)cc1.Cl (stereo not shown) | 39 | 370 | 316 | 653 | 45910 |  |  |  |  |  |  | 
2 | CC1(C)CCN(C(C)(C)C)C=C1C(=O)c1ccc(C(=O)O)cc1 [Compound 160, 4-(1-(tert-butyl)-4,4-dimethyl-1,4,5,6-tetrahydropyridine-3-carbonyl)benzoic acid] |  |  |  |  |  | 317 | 17300 | 80 to 83 °C |  |  |  | 
3 | CCCCC(CC)CN(c1ccc(C(=O)C2=CN(C(C)(C)C)CCC2(C)C)cc1)c1ccc(C(=O)C2=CN(C(C)(C)C)CCC2(C)C)cc1 (stereo not shown) |  | 369 | 316 | 624 | 41598 |  |  |  | 90 | ~340 |  | 
4 | CC1(C)CCN(C(C)(C)C)C=C1C(=O)c1c(F)c(F)c(F)c(F)c1F | 100 | 333 | 314 | 951 | 34340 |  |  |  |  |  |  | 
5 | CCCCC(CC)COC(=O)CCC(=O)C1=CN(c2ccc(N3C=C(C(=O)CCC(=O)OCC(CC)CCCC)C(C)(C)CC3)cc2)CCC1(C)C (stereo not shown) | 52 | 379 | 359 | 628 | 45301 |  |  |  |  |  |  | 
6 | CCOC(=O)C(=O)C1=CN(C(C)(C)C)CCC1(C)C | 50 | 344 | 311 | 998 | 26668 |  |  |  |  |  |  | 
7 | CC1(C)CCN(C(C)(C)C)C=C1C(=O)c1ccccn1 | 22 | 360 | 317 | 635 | 17272 |  |  |  |  |  |  | 
8 | CC1(C)CCN(C(C)(C)C)C=C1C(=O)/C=C/c1cccc(/C=C/C(=O)C2=CN(C(C)(C)C)CCC2(C)C)c1 | 95 | 386 | 360 | 395 | 20388 |  |  |  |  |  |  | 
9 | CC(C)(C)Oc1ccc(C(=O)C2=CN(C(C)(C)C)CCC2(C)C)cc1 [Compound 158, (4-(tert-butoxy)phenyl)(1-(tert-butyl)-4,4-dimethyl-1,4,5,6-tetrahydropyridin-3-yl)methanone] |  |  |  |  |  | 317 | 32556 | 98 to 101 °C |  |  |  | 
10 | COc1ccc(C(=O)CC(=O)c2ccc(C(C)(C)C)cc2)cc1 [Avobenzone, reference compound] |  |  |  |  |  |  |  |  |  |  | 378 | 380
11 | CN(C)c1ccc(C(=O)C2=CN(C(C)(C)C)CCC2(C)C)cc1 [Compound 157, (1-(tert-butyl)-4,4-dimethyl-1,4,5,6-tetrahydropyridine-3-yl)(4-(dimethylamino)phenyl)methanone] |  |  |  |  |  | 333 | 24966 | 162 to 163 °C |  |  |  | 
12 | CC1(C)CCN(c2ccc(N3C=C(C(=O)CCC(F)(F)F)C(C)(C)CC3)cc2)C=C1C(=O)CCC(F)(F)F | 54 | 379 | 358 | 1090 | 59296 |  |  |  |  |  |  | 
13 | CC1(C)CCN(C(C)(C)C)C=C1C(=O)/C=C/c1ccc(C(=O)C2=CN(C(C)(C)C)CCC2(C)C)cc1 | 77 | 385 | 360 | 564 | 27646 |  |  |  |  |  |  | 
14 | CC1(C)CCN(C(C)(C)C)C=C1C(=O)c1ccc(F)cc1 | 75 | 346 | 316 | 655 | 20919 |  |  |  |  |  |  | 

Further lines, with some results ahead:

Row | Photostability (%) (Photostability) | λcrit [1] [nm] | λmax [2] [nm] | E (1%, 1 cm) [2] | ε [2] | UV λmax [2] [nm] | ε (molar extinction coefficient) [2] [M⁻¹ cm⁻¹] | melting point | Photostability (%) + Octo (Photostability; with octocrylene (+ Octo)) [%] | shoulder in the λmax column ([2]; Tables 5, 10, 13B) [nm] | critical wavelength ([1]; values only approximate) [nm] | SMILES | critical wavelength, reported [3] [nm]
15 | 60 | 327 | 309 | 1137 | 28554 |  |  |  |  |  |  | CC(C)CN1C=C(C(=O)C(C)(C)C)C(C)(C)CC1 | 
16 | 55 | 328 | 311 | 990 | 61479 |  |  |  |  |  |  | Cc1ccc(NC(=O)C2=CN(C(C)(C)CC(C)(C)C)CCC2(C)C)cc1NC(=O)C1=CN(C(C)(C)CC(C)(C)C)CCC1(C)C | 
17 |  |  |  |  |  | 407 |  | 145 °C |  |  |  | CC1(C)CCN(c2ccc(C(C)(C)C)cc2)C=C1C(OC(=O)C1c2ccccc2-c2ccccc21)=C1c2ccccc2-c2ccccc21 [Compound 206, (1-(4-(tert-butyl)phenyl)-4,4-dimethyl-1,4,5,6-tetrahydropyridin-3-yl)(9H-fluoren-9-ylidene)methyl 9H-fluorene-9-carboxylate] | 
18 | 33 | 326 | 311 | 1084 | 33953 |  |  |  |  |  |  | Cc1cc(C)c(C(=O)C2=CN(C(C)(C)C)CCC2(C)C)c(C)c1 | 
19 | 2 | 388 | 378 | 460 | 30963 |  |  |  |  |  |  | CCCCC(CC)COC(=O)c1cc(/C=C/C(=O)C2=CN(C(C)(C)C)CCC2(C)C)ccc1/C=C/C(=O)C1=CN(C(C)(C)C)CCC1(C)C (stereo not shown) | 
20 | 68 | 362 | 332 | 1210 | 34743 |  |  |  |  |  |  | CCOC(=O)C(=O)C1=CN(c2ccccc2)CCC1(C)C | 
21 | 76 | 342 | 315 | 939 | 25447 |  |  |  |  |  |  | CC1(C)CCN(C(C)(C)C)C=C1C(=O)c1ccccc1 | 
22 |  |  |  |  |  | 317 | 33982 | 243 °C (dec.) |  |  |  | CC1(C)CCN(C(C)(C)C)C=C1C(=O)c1ccc(C(=O)C2=CN(C(C)(C)C)CCC2(C)C)cc1 [Compound 159, 1,4-phenylenebis((1-(tert-butyl)-4,4-dimethyl-1,4,5,6-tetrahydropyridin-3-yl)methanone)] | 
